The values that follow come from patent publication US12391679B2, “Benzamide-substituted bicyclic imidazo- and pyrazolo-fused -pyridine, -pyrimide, and -pyridazine compounds for treatment of inflammatory diseases” (ONCO3R Therapeutics BV, priority 2019, dated 2025).

In one test the target is T1, SIK1 (Homo sapiens, UniProt P57059).
T1 construct: purchased Carna Biosciences 02-131
In words: ADP-Glo kinase assay, SIK1. Format: biochemical. In outline: (§1)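 Kinase reactions ran 120 min at room temperature after ATP addition to enzyme-substrate mix. Remaining ATP was depleted (40 min) and ADP converted to ATP for luciferase detection (30 min), signal rising with activity. Final 1% DMSO and 10 μM staurosporine served as negative and positive controls.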
A general note: In ADP-Glo the light output rises with the ADP produced.

For another test, the target named is T2, SIK2 (Homo sapiens, UniProt Q9H0K1).
T2 construct: purchased ThermoFisher Scientific PV4792
T2 sequence (Q9H0K1 whole entry): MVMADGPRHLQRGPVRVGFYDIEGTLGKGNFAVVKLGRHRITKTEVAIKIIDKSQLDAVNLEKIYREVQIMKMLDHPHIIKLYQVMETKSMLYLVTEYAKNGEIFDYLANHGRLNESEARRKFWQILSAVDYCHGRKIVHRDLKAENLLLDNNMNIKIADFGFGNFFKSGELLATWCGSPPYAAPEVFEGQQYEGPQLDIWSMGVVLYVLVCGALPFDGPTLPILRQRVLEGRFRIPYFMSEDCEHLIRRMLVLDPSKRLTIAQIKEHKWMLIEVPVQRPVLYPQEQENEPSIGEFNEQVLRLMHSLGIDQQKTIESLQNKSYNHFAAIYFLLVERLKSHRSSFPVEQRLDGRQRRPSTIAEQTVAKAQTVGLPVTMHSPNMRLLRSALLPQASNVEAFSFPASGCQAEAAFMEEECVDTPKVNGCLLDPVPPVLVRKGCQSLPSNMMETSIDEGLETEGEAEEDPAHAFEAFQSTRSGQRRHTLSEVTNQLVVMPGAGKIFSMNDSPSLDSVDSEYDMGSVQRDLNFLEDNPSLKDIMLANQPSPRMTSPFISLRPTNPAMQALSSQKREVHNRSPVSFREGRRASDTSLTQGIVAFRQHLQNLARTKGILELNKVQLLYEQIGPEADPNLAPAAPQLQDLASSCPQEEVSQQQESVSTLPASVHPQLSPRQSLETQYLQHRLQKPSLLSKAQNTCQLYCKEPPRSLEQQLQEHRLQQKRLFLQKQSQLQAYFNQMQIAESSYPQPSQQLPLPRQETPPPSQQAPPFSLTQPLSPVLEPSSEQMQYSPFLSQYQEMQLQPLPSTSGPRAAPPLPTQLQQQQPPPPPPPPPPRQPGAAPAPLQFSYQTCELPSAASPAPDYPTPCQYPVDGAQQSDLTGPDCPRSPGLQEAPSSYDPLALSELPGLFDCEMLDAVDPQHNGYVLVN
The experiment in a line: ADP-Glo kinase assay, SIK2. It counts as biochemical. Summed up:
as §1

The subject of test [1] is LPS-induced TNFα in monocytes. In words: Monocytes assay: LPS-triggered TNFα (ELISA). Format: cell-based, human. The note with it: Homo sapiens, Monocyte, LPS-triggered TNFα inhibition. The protocol: This assay evaluates illustrative compounds of the invention for their inhibition of LPS-induced TNFα and LPS triggered IL-10 secretion in monocytes.
PBMCs are isolated from human blood samples (buffycoats). The buffy coat is aseptically transferred into a 50 mL Falcon tube, and diluted 1/2 in PBS. Falcon tubes are filled with 20 mL Lymphoprep™, on top of which 25 mL of the buffy coat is carefully added, tubes are centrifuged for 35 min at 400 g in temperature controlled centrifuge, without brake, at 25° C. PBMCs are aspirated from the white interface layer between sample and Lymphoprep™. PBMCs are washed five times in PBS.
PBMCs are centrifuged at 300×g for 10 min and resuspended at a density of 1.0*10^7 cells/80 μL Miltenyi buffer (PBS, pH 7.4, 1% FBS, 2 mM EDTA).
Starting from this point of the protocol all steps are performed on ice. 20 μL of CD14+ micro-beads are added per 1.0*10^7 cells, the tube is mixed and incubated for 15 min in the fridge at 4° C. Cell suspension volume is adjusted to total volume of 100 mL using Miltenyi buffer, mixed gently and subsequently centrifuged for 10 min at 300×g. Supernatant is discarded and cell pellet is resuspended in 12 mL of Miltenyi buffer.
Four LS columns are placed in the MACS Separator (magnet) from Miltenyi Biotec, and are prewet by rinsing with 3 mL of MACS buffer per column. Three mL of cell suspension is added onto the column (max 1*10^8 of labelled cells/column), and columns are subsequently washed 3 times with 3 mL of Miltenyi buffer.
The columns are removed from the magnets, and 5 mL of Miltenyi buffer are added to the column to flush out the CD14+ fraction by pushing the plunger into the column. The flushed fractions are collected in a fresh 50 mL Falcon and volume is adjusted to 30 mL using Miltenyi buffer, cells are centrifuged for 10 min at 300×g. The obtained cell pellet is resuspended in 10 mL RPMI w/o FBS, and cell density is determined using a hematologic analyser (Sysmex XS-500i).
A compound dilution plate is made in 100% DMSO by 3-fold dilution of 10 mM stock solution. An intermediate dilution plate (10× final concentration) is made by diluting the compound dilution plate 50-fold in RPMI medium.
10 μL of the 10× final concentration compound is added to the cells and incubated for 1 h at 37° C. before addition of trigger. No trigger conditions/trigger conditions are spiked with equal final DMSO concentrations of 0.2% DMSO. 10 μL of 10×LPS (final conc. 200 ng/mL) solution are added to all wells except for the ‘no trigger wells’ where 10 μL medium is added. Supernatant is collected after 4 h of LPS triggering.
The plate is then washed once with PBST (PBS+0.05% Tween20) and once with PBS followed by the addition of 100 μL of blocking buffer (1% Bovine Serum Albumin (BSA)-5% Sucrose) and plates are sealed and incubated for at least 4 h at RT. After washing the plate once with PBST and once with PBS, […]. Plates are washed twice with PBST, and once with PBS, after which 35 μL of the detection antibody is added (final concentration 0.25 μg/mL diluted in dilution buffer) and plates are incubated for at least 2 h at RT. Plates are washed twice with PBST, and once with PBS, whereafter 35 μL of Strep-HRP conjugate (0.5 μg/mL final concentration diluted in dilution buffer) is added. Plates are incubated in the dark, at RT for at least 45 min but no longer than 1 h. Plates are washed twice with PBST, and once with PBS. Thereafter, 50 μL of luminol substrate is added to each well (prepared according to manufacturer's instructions), and incubated for 5 min at RT protected from light.
To measure the inhibition of LPS induced TNFα, percentage inhibition (PIN) values are calculated for all concentrations tested, compared to controls.
(In general: An ELISA detects its analyte on a solid surface through an enzyme-linked reagent.)

For another test, the target named is T3, SIK3 (Homo sapiens, UniProt Q9Y2K2).
T3 construct: purchased SignalChem S12-11G-100
T3 sequence (Q9Y2K2 59-365 limits assumed): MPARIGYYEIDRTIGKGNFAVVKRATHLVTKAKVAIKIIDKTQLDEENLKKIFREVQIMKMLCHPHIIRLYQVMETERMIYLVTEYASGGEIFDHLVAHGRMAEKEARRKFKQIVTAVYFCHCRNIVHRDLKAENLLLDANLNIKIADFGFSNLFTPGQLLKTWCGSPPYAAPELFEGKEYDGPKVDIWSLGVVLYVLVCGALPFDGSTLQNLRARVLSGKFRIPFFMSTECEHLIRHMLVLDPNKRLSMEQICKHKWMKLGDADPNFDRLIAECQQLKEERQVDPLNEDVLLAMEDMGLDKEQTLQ
The experiment in a line: ADP-Glo kinase assay, SIK3. Format: biochemical. Summed up: as §1

T1 sequence (P57059 whole entry): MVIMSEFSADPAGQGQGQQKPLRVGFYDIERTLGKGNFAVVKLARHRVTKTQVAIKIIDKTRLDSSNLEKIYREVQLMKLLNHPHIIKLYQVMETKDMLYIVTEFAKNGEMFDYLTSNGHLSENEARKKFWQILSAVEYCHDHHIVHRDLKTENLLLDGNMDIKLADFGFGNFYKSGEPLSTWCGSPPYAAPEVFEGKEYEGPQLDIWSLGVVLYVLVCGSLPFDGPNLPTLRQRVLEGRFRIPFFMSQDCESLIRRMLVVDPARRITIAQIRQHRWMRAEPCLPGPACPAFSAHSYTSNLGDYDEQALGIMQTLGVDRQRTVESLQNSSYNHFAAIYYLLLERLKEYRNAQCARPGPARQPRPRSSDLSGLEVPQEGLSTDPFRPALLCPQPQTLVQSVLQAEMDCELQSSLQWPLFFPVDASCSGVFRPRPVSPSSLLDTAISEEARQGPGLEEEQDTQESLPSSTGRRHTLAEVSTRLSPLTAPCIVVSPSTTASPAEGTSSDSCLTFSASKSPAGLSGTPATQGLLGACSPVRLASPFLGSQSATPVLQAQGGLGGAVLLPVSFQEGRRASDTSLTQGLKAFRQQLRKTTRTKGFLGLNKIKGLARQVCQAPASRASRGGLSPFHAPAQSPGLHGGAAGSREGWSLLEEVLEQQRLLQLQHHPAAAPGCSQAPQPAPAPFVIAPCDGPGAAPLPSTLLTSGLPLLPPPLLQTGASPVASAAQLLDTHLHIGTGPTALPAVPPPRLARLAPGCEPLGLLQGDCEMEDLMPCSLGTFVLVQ

A word on the IC50: it is the point on the concentration scale where inhibition reaches its midpoint. Low readings indicate greater potency in that assay, high ones weaker potency in that assay. One may read the EC50 as the midpoint of the concentration-response curve. Read a low EC50 as an effect from little substance. Take `COc1cc(-c2cnc3cc(C(C)(C)C(C)O)ccn23)cc(OC)c1C(=O)NCC(F)(F)F` (stereo not shown) [Cpd 62, 4-[7-(2-hydroxy-1,1-dimethyl-propyl)imidazo[1,2-a]pyridin-3-yl]-2,6-dimethoxy-N-(2,2,2-trifluoroethyl)benzamide]: the IC50 on SIK1 is over 500 nM; against SIK2, over 500 nM; on SIK3 it was 10 to 100 nM. In test [1], this compound returned a concentration giving a half-maximal response (EC50) of 1000 to 5000 nM.

Regarding `COc1cc(-c2cnc3cc(C4(C#N)CN(C)C4)ccn23)cc(OC(F)F)c1C(=O)NC1CC1` [Cpd 121, 4-[7-(3-cyano-1-methyl-azetidin-3-yl)imidazo[1,2-a]pyridin-3-yl]-N-cyclopropyl-2-(difluoromethoxy)-6-methoxy-benzamide], the IC50 was over 500 nM at SIK1, over 500 nM against SIK2 and 10 to 100 nM at SIK3. Besides, the half-maximal effective concentration (EC50) in test [1] fell in the range of 1000 to 5000 nM.

`COc1cc(-c2cnc3cc(C(C)N4CCOCC4)ccn23)cc(OC(F)F)c1C(=O)NC1CC1` (stereo not shown) [Cpd 139, N-cyclopropyl-2-(difluoromethoxy)-6-methoxy-4-[7-(1-morpholinoethyl)imidazo[1,2-a]pyridin-3-yl]benzamide]: the results for the IC50 against SIK1, at SIK2 and on SIK3 were over 500 nM, over 500 nM and 10 to 100 nM, respectively. In test [1], this compound registered an EC50 of 1000 to 5000 nM.

On to `COc1cn2c(-c3cc(OC)c(C(=O)NC4CC4)c(OC(F)F)c3)cnc2cc1C1CCOCC1` [Cpd 167, N-cyclopropyl-2-(difluoromethoxy)-6-methoxy-4-(6-methoxy-7-tetrahydropyran-4-yl-imidazo[1,2-a]pyridin-3-yl)benzamide], for which the IC50 is over 500 nM at SIK1, 100 to 500 nM against SIK2 and 10 to 100 nM on SIK3. For the same compound, the EC50 in test [1] is 1000 to 5000 nM.

Regarding `COc1cc(-c2cnc3cc(C4CN(C(C)=O)C4)c(F)cn23)cc(OC(F)F)c1C(=O)NC1CC1` [Cpd 169, 4-[7-(1-acetylazetidin-3-yl)-6-fluoro-imidazo[1,2-a]pyridin-3-yl]-N-cyclopropyl-2-(difluoromethoxy)-6-methoxy-benzamide], the IC50 was over 500 nM on SIK1, 100 to 500 nM against SIK2 and 10 to 100 nM against SIK3. The same compound registered a 50% effective concentration (EC50) in test [1] of 1000 to 5000 nM.

With `COc1cc(-c2cnc3cc(C(C)(O)CN4CCOCC4)ccn23)cc(OC(F)F)c1C(=O)NC1CC1` (stereo not shown) [Cpd 178, N-cyclopropyl-2-(difluoromethoxy)-4-[7-(1-hydroxy-1-methyl-2-morpholino-ethyl)imidazo[1,2-a]pyridin-3-yl]-6-methoxy-benzamide], the half-maximal inhibitory concentration (IC50) was over 500 nM against SIK1, over 500 nM against SIK2 and 10 to 100 nM at SIK3. Further, the concentration giving a half-maximal response (EC50) in test [1] lay within 100 to 1000 nM.

With `COc1cc(-c2cnc3cc(C(C)(O)CC#N)ccn23)cc(OC(F)F)c1C(=O)NC1CC1` (stereo not shown) [Cpd 179, 4-[7-(2-cyano-1-hydroxy-1-methyl-ethyl)imidazo[1,2-a]pyridin-3-yl]-N-cyclopropyl-2-(difluoromethoxy)-6-methoxy-benzamide], the half-inhibitory concentration (IC50) at SIK1, at SIK2 and on SIK3 was 0.01 to 10 nM each time. Further, in test [1], the EC50 lay in the range of 0.1 to 100 nM.

Take `COc1cc(-c2cnc3cc(C(C)(O)CN4CCCCC4)ccn23)cc(OC(F)F)c1C(=O)NC1CC1` (stereo not shown) [Cpd 185, N-cyclopropyl-2-(difluoromethoxy)-4-[7-[1-hydroxy-1-methyl-2-(1-piperidyl)ethyl]imidazo[1,2-a]pyridin-3-yl]-6-methoxy-benzamide]: the concentration for half-maximal inhibition (IC50) on SIK1 was over 500 nM; at SIK2 it was over 500 nM; against SIK3, 10 to 100 nM. In test [1], this compound displayed a 50% effective concentration (EC50) of 100 to 1000 nM.

Take `COc1cc(-c2cnc3cc(C4CCCN4)ccn23)cc(OC(F)F)c1C(=O)NC1CC1` (stereo not shown) [Cpd 188, N-cyclopropyl-2-(difluoromethoxy)-6-methoxy-4-(7-pyrrolidin-2-ylimidazo[1,2-a]pyridin-3-yl)benzamide]: the figures for the IC50 on SIK1, against SIK2 and against SIK3 were over 500 nM, 100 to 500 nM and 10 to 100 nM, respectively. For the same compound, in test [1], the EC50 lay in the range of 100 to 1000 nM.

`COc1cc(-c2cnc3cc(C(C)(O)Cn4cccn4)ccn23)cc(OC(F)F)c1C(=O)NC1CC1` (stereo not shown) [Cpd 192, N-cyclopropyl-2-(difluoromethoxy)-4-[7-(1-hydroxy-1-methyl-2-pyrazol-1-yl-ethyl)imidazo[1,2-a]pyridin-3-yl]-6-methoxy-benzamide]: the IC50 against SIK1 was over 500 nM; against SIK2, over 500 nM; against SIK3 it was 10 to 100 nM. The compound also showed an EC50 in test [1] of 100 to 1000 nM.

Take `COc1cc(-c2cnc3cc(C4(OC)COC4)ccn23)cc(OC(F)F)c1C(=O)NC1CC1` [Cpd 212, N-cyclopropyl-2-(difluoromethoxy)-6-methoxy-4-[7-(3-methoxyoxetan-3-yl)imidazo[1,2-a]pyridin-3-yl]benzamide]: the IC50 against SIK1 is over 500 nM; at SIK2 it was over 500 nM; on SIK3, 10 to 100 nM. Also, the 50% effective concentration (EC50) in test [1] fell in the range of 100 to 1000 nM.

On to `COc1cc(-c2cnc3cc(C4(O)CCOC4)ccn23)cc(OC(F)F)c1C(=O)NC1CC1` (stereo not shown) [Cpd 213, N-cyclopropyl-2-(difluoromethoxy)-4-[7-(3-hydroxytetrahydrofuran-3-yl)imidazo[1,2-a]pyridin-3-yl]-6-methoxy-benzamide], for which the IC50 against SIK1 is over 500 nM; on SIK2 it was over 500 nM; against SIK3, 10 to 100 nM. In addition, the EC50 in test [1] fell in the range of 100 to 1000 nM.

As for `COc1cc(-c2cnc3cc(C(C)(C)C#N)c(OCCO)cn23)cc(OC(F)F)c1C(=O)NC1CC1` [Cpd 221, 4-[7-(1-cyano-1-methyl-ethyl)-6-(2-hydroxyethoxy)imidazo[1,2-a]pyridin-3-yl]-N-cyclopropyl-2-(difluoromethoxy)-6-methoxy-benzamide], the IC50 is over 500 nM against SIK1, over 500 nM against SIK2 and 10 to 100 nM at SIK3. Moreover, in test [1], the EC50 lay in the range of 100 to 1000 nM.

For the compound `COc1cc(-c2cnc3cc(C4(O)COC4)ccn23)cc(OC(F)F)c1C(=O)N[C@@H]1C[C@@H]1F` [Cpd 223, 2-(difluoromethoxy)-N-[(1R,2S)-2-fluorocyclopropyl]-4-[7-(3-hydroxyoxetan-3-yl)imidazo[1,2-a]pyridin-3-yl]-6-methoxy-benzamide], the IC50 at SIK1 is over 500 nM; against SIK2 it was 100 to 500 nM; at SIK3, 10 to 100 nM. The compound also returned an EC50 in test [1] of 100 to 1000 nM.

Turning to `COc1cc(-c2cnc3cc(C(C)(C)C4CCO4)ccn23)cc(OC(F)F)c1C(=O)NC1CC1` (stereo not shown) [Cpd 229, N-cyclopropyl-2-(difluoromethoxy)-6-methoxy-4-[7-[1-methyl-1-(oxetan-2-yl)ethyl]imidazo[1,2-a]pyridin-3-yl]benzamide], the half-inhibitory concentration (IC50) at SIK1 is over 500 nM; against SIK2 it was over 500 nM; at SIK3, 10 to 100 nM. In addition, the concentration for a half-maximal effect (EC50) in test [1] was 100 to 1000 nM.

Consider `COc1cc(-c2cnn3cc(C(C)(C)c4nc(C)no4)ccc23)cc(OC(F)F)c1C(=O)NC1CC1` [Cpd 248, N-cyclopropyl-2-(difluoromethoxy)-6-methoxy-4-[6-[1-methyl-1-(3-methyl-1,2,4-oxadiazol-5-yl)ethyl]pyrazolo[1,5-a]pyridin-3-yl]benzamide], for which the IC50 against SIK1 was over 500 nM; against SIK2, over 500 nM; at SIK3, 10 to 100 nM. For the same compound, in test [1], the concentration for a half-maximal effect (EC50) was 100 to 1000 nM.
